Data set [1] addresses T1, soluble guanylate cyclase (sGC) (Bos taurus, UniProt P16068).
T1 construct: The sGC employed had been isolated from bovine lung; from tissue; host or cells: bovine lung
T1 sequence (P16068 1-619): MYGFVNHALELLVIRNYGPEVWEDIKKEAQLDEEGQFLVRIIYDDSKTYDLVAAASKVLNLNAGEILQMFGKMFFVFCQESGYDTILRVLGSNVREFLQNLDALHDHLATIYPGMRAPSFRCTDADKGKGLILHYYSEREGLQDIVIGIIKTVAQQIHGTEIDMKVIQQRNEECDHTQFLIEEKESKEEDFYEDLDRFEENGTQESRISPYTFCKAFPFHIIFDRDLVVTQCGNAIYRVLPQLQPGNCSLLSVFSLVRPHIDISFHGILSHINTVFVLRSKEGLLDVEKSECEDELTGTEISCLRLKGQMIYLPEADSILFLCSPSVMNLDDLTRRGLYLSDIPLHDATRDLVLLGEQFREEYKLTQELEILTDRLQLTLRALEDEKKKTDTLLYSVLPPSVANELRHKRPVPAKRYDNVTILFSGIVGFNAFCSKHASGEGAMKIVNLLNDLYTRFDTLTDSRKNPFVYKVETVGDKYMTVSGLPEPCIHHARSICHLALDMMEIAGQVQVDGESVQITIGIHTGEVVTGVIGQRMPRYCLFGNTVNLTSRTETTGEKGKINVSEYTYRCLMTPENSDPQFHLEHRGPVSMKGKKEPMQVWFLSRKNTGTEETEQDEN
T1 sequence (P19687 1-691 partner): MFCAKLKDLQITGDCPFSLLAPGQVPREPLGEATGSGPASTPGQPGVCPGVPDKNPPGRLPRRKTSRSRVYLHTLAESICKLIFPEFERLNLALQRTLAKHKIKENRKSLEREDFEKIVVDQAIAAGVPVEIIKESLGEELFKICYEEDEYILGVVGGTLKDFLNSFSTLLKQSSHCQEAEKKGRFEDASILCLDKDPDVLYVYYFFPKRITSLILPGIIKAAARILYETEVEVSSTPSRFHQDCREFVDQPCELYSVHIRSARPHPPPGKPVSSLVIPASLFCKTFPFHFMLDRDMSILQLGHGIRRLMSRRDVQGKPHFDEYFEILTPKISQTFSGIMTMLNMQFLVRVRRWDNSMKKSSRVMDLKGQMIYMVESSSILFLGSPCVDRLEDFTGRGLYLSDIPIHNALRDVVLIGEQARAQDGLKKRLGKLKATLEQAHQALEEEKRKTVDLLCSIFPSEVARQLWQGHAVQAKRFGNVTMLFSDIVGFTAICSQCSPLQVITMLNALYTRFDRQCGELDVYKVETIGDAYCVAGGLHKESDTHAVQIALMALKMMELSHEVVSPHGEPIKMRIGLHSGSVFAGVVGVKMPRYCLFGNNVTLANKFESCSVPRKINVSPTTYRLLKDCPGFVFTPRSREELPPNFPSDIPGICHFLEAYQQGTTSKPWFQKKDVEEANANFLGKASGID
In words: Activation of soluble guanylate cyclase (cGMP enzyme immunoassay). It counts as biochemical. The note with it: sGC isolated from bovine lung, stimulation of basal enzyme activity vs solvent control. As for the experimental part:
The activation of soluble guanylate cyclase (sGC), which catalyzes the conversion of guanosine triphosphate (GTP) to cyclic guanosine monophosphate (cGMP) and pyrophosphate, by the compounds according to the invention was quantified with the aid of an enzyme immunoassay (EIA) from Amersham. For this, the test substances were first incubated with sGC in microtiter plates and then the quantity of the resulting cGMP was determined.
The sGC employed had been isolated from bovine lung (see Methods in Enzymology, Volume 195, p. 377). The test solutions (100 μl per well) contained 50 mM triethanolamine (TEA) buffer (pH 7.5), 3 mM MgCl2, 3 mM reduced glutathione (GSH), 0.1 mM GTP, 1 mM 3-isobutyl-1-methylxanthine (IBMX), suitably diluted enzyme solution and the test substance or, in the control experiments, solvent. The test substances were dissolved in dimethyl sulfoxide (DMSO) and the solution was diluted with DMSO/water such that the final concentration c of test substance in the test batch had the value indicated below. The DMSO concentration in the test batch was 5% (v/v). The reaction was started by addition of the sGC. The reaction mix was incubated at 37° C. for 15 to 20 minutes and then stopped by ice-cooling and addition of the stop reagent (50 mM EDTA, pH 8.0). An aliquot of 50 μl was taken and employed for the determination of the cGMP content using the acetylation protocol of the Amersham cGMP EIA kit. The absorption of the samples was measured at 450 nm (reference wavelength 620 nm) in a microtiter plate reading apparatus. The cGMP concentration was determined by means of a calibration curve, which was obtained under the same experimental conditions. The activation of the sGC by a test substance is indicated as n-fold stimulation of the basal enzyme activity which was found in the control experiments (with solvent instead of test substance) (calculated according to the formula n-fold stimulation=[cGMP]test substance/[cGMP]control).

In data set [1] (concentration c 50 μM), “5-Chloro-2-(4-chlorophenylsulfonylamino)-N-(quinolinsyl)benzamide [Example 111]” had a n-fold stimulation of 6.1 n-fold.

Take `O=C(Nc1cccc(C(F)(F)F)c1)c1ccccc1NS(=O)(=O)c1ccc(Cl)cc1` [Example 1, 2-(4-Chlorophenylsulfonylamino)-N-(3-trifluoromethylphenyl)benzamide]: the melting point is 169 °C. This compound displayed a n-fold stimulation in data set [1] (concentration c 100 μM) of 3.6 n-fold. Consider `O=C(Nc1cccc(C(F)(F)F)c1)c1cc(Br)ccc1NS(=O)(=O)c1ccc(Cl)cc1` [Example 2, 5-Bromo-2-(4-chlorophenylsulfonylamino)-N-(3-trifluoromethylphenyl)benzamide], for which the melting point stood at 220 °C. In addition, in data set [1] (concentration c 100 μM), the n-fold stimulation came out at 9.2 n-fold.

`O=C(Nc1ccc2ccccc2c1)c1ccccc1NS(=O)(=O)c1ccc(Cl)cc1` [Example 3, 2-(4-Chlorophenylsulfonylamino)-N-(2-naphthyl)benzamide] registered a melting point of 189 °C. For the same compound, the n-fold stimulation in data set [1] (concentration c 100 μM) amounted to 2 n-fold. Compound `O=C(Nc1cccc(C(F)(F)F)c1)c1cc(Cl)ccc1NS(=O)(=O)c1ccc(Cl)cc1` [Example 4, 5-Chloro-2-(4-chlorophenylsulfonylamino)-N-(3-trifluoromethylphenyl)benzamide] yielded a melting point of 216 °C. In addition, the n-fold stimulation in data set [1] (concentration c 25 μM) is 5.5 n-fold. For `O=C(Nc1ccc(Oc2ccccc2)cc1)c1cc(Cl)ccc1NS(=O)(=O)c1ccc(Cl)cc1` [Example 5, 5-Chloro-2-(4-chlorophenylsulfonylamino)-N-(4-phenoxyphenyl)benzamide], the melting point came out at 205 °C. This compound also had a n-fold stimulation in data set [1] (concentration c 10 μM) of 9.3 n-fold.

In turn, `O=C(Nc1ccc(Oc2ccc(Cl)cc2)cc1)c1cc(Cl)ccc1NS(=O)(=O)c1ccc(Cl)cc1` [Example 6, 5-Chloro-2-(4-chlorophenylsulfonylamino)-N-(4-(4-chlorophenoxy)phenyl)benzamide] showed a melting point of 207 °C. The same compound showed a n-fold stimulation in data set [1] (concentration c 100 μM) of 4.2 n-fold. Consider `O=C(Nc1ccc(Cl)c(Cl)c1)c1cc(Cl)ccc1NS(=O)(=O)c1ccc(Cl)cc1` [Example 8, 5-Chloro-2-(4-chlorophenylsulfonylamino)-N-(3,4-dichlorophenyl)benzamide], for which, in data set [1] (concentration c 10 μM), the n-fold stimulation is reported as 5.3 n-fold. Regarding `COc1ccc(S(=O)(=O)Nc2ccc(Cl)cc2C(=O)Nc2ccc(F)cc2)cc1Cl` [Example 17], the n-fold stimulation in data set [1] (concentration c 100 μM) is 2 n-fold.

As to `O=C(Nc1ccc(Oc2ccc(Cl)c3ccccc23)c(Cl)c1)c1cc(Cl)ccc1NS(=O)(=O)c1ccc(Cl)cc1` [Example 19, 5-Chloro-2-(4-chlorophenylsulfonylamino)-N-(3-chloro-4-(4-chloronaphthalene-1-yloxy)phenyl)benzamide], the n-fold stimulation in data set [1] (concentration c 100 μM) is reported as 26.3 n-fold. `O=C(Nc1ccc(Nc2ccccc2)cc1)c1cc(Cl)ccc1NS(=O)(=O)c1ccc(Cl)cc1` [Example 22, 5-Chloro-2-(4-chlorophenylsulfonylamino)-N-(4-(phenylamino)phenyl)benzamide] displayed a melting point of 192.5 °C. Regarding `O=C(Nc1ccc(N2CCCC2=O)cc1)c1cc(Cl)ccc1NS(=O)(=O)c1ccccc1` [Example 25], the n-fold stimulation in data set [1] (concentration c 50 μM) is recorded as 2.4 n-fold. `Cc1cncc(NC(=O)c2cc(Cl)ccc2NS(=O)(=O)c2ccc(Cl)cc2)n1` [Example 26, 5-Chloro-2-(4-chlorophenylsulfonylamino)-N-(5-methylpyrazin-3-yl)benzamide] had a melting point of 248 °C. Compound `O=C(Nc1cc(-c2cccs2)n[nH]1)c1cc(Cl)ccc1NS(=O)(=O)c1ccc(Cl)cc1` [Example 27, 5-Chloro-2-(4-chlorophenylsulfonylamino)-N-(3-(2-thienyl)pyrazol-5-yl)benzamide] displayed a melting point of 117 °C. The same measure, in the same setting: with `O=C(Nc1cc(C(F)(F)F)cc(C(F)(F)F)c1)c1cc(Cl)ccc1NS(=O)(=O)c1ccc(Cl)cc1` [Example 28, 5-Chloro-2-(4-chlorophenylsulfonylamino)-N-(3,5-bis-trifluoromethylphenyl)benzamide] the figure was 182.5 °C; with `COc1ccc(C(F)(F)F)cc1NC(=O)c1cc(Cl)ccc1NS(=O)(=O)c1ccc(Cl)cc1` [Example 29, 5-Chloro-2-(4-chlorophenylsulfonylamino)-N-(2-methoxy-5-trifluoromethylphenyl)benzamide], 164.5 °C; with `O=C(Nc1ccccc1C(F)(F)F)c1cc(Cl)ccc1NS(=O)(=O)c1ccc(Cl)cc1` [Example 30, 5-Chloro-2-(4-chlorophenylsulfonylamino)-N-(2-trifluoromethylphenyl)benzamide], 182 °C. As for `COc1cccc(NC(=O)c2cc(Cl)ccc2NS(=O)(=O)c2ccc(Cl)cc2)c1` [Example 31, 5-Chloro-2-(4-chlorophenylsulfonylamino)-N-(3-methoxyphenyl)benzamide], the melting point amounted to 163.5 °C. On the same count and under the same terms, with `COc1cc(NC(=O)c2cc(Cl)ccc2NS(=O)(=O)c2ccc(Cl)cc2)cc(OC)c1` [Example 32, 5-Chloro-2-(4-chlorophenylsulfonylamino)-N-(3,5-dimethoxyphenyl)benzamide] the figure was 74.5 °C. `O=C(Nc1ccc(C(=O)N2CCOCC2)cc1)c1cc(Cl)ccc1NS(=O)(=O)c1ccc(Cl)cc1` [Example 33, 5-Chloro-2-(4-chlorophenylsulfonylamino)-N-(4-(morpholine-4-carbonyl)phenyl)benzamide] displayed a n-fold stimulation in data set [1] (concentration c 50 μM) of 3.8 n-fold.

For `CCN(CC)Cc1cc(NC(=O)c2cc(Cl)ccc2NS(=O)(=O)c2ccc(Cl)cc2)ccc1O` [Example 93, 5-Chloro-2-(4-chlorophenylsulfonylamino)-N-(3-diethylaminomethyl-4-hydroxyphenyl)benzamide], in data set [1] (concentration c 50 μM), the n-fold stimulation is on record as 1.5 n-fold. Compound `N#CC(c1ccccc1)c1ccc(NC(=O)c2cc(Cl)ccc2NS(=O)(=O)c2ccc(Cl)cc2)cc1` (stereo not drawn) [Example 97, 5-Chloro-2-(4-chlorophenylsulfonylamino)-N-(4-(cyanophenylmethyl)phenyl)benzamide] showed a n-fold stimulation in data set [1] (concentration c 12.5 μM) of 4.9 n-fold.

In data set [1] (concentration c 50 μM), `O=C(O)CNC(=O)c1ccc(NC(=O)c2cc(Cl)ccc2NS(=O)(=O)c2ccc(Cl)cc2)cc1` [Example 102, (4-(5-Chloro-2-(4-chlorophenylsulfonylamino)benzoylamino)benzoylamino)acetic acid] registered a n-fold stimulation of 1.7 n-fold. Still for that read-out and setting: in the case of `O=C(O)Cc1cccc(NC(=O)c2cc(Cl)ccc2NS(=O)(=O)c2ccc(Cl)cc2)c1` [Example 108, (3-(5-Chloro-2-(4-chlorophenylsulfonylamino)benzoylamino)phenyl)acetic acid] it was 2.5 n-fold.

The record behind these values is US7351703B2, “Sulfonylamino carboxylic acid N-arylamides as guanylate cyclase activators” (Sanofi-Aventis Deutschland GmbH, priority 1999, dated 2008).
